Source: PubChem BioAssay (NCI)
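A five-concentration, 48-hour dose response in 96-well plates underlies each endpoint, interpolated linearly between surrounding concentrations. TGI marks complete inhibition of growth.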

Tests used:
Assay in all cases: DTP human tumour cell line panel, 48 h
[1] = system: 786-0 renal
[2] = system: A498 renal
[3] = system: A549 NSCLC
[4] = system: ACHN renal
[5] = system: CAKI-1 renal
[6] = system: CCRF-CEM leukemia
[7] = system: COLO 205 colon
[8] = system: DLD-1 colon
[9] = system: DMS 114 small cell lung
[10] = system: EKVX NSCLC
[11] = system: HCC-2998 colon
[12] = system: HCT-116 colon
[13] = system: HCT-15 colon
[14] = system: HL-60(TB) leukemia
[15] = system: HOP-18 NSCLC
[16] = system: HOP-62 NSCLC
[17] = system: HOP-92 NSCLC
[18] = system: HT29 colon
[19] = system: IGROV1 ovarian
[20] = system: K-562 leukemia
[21] = system: KM12 colon
[22] = system: KM20L2 colon
[23] = system: LOX IMVI melanoma
[24] = system: LXFL 529 NSCLC
[25] = system: M14 melanoma
[26] = system: M19-MEL melanoma
[27] = system: MALME-3M melanoma
[28] = system: MOLT-4 leukemia
[29] = system: NCI-H226 lung
[30] = system: NCI-H23 lung
[31] = system: NCI-H460 lung
[32] = system: NCI-H522 lung
[33] = system: OVCAR-3 ovarian
[34] = system: OVCAR-4 ovarian
[35] = system: OVCAR-5 ovarian
[36] = system: OVCAR-8 ovarian
[37] = system: RPMI-8226 leukemia
[38] = system: RXF 393 renal
[39] = system: RXF-631 renal
[40] = system: SF-268 CNS
[41] = system: SF-295 CNS
[42] = system: SF-539 CNS
[43] = system: SK-MEL-28 melanoma
[44] = system: SK-MEL-5 melanoma
[45] = system: SK-OV-3 ovarian
[46] = system: SN12C renal
[47] = system: SNB-19 CNS
[48] = system: SNB-75 CNS
[49] = system: SNB-78 CNS
[50] = system: SR leukemia
[51] = system: SW-620 colon
[52] = system: TK-10 renal
[53] = system: U251 CNS
[54] = system: UACC-257 melanoma
[55] = system: UACC-62 melanoma
[56] = system: UO-31 renal
[57] = system: XF 498 CNS

Measured: TGI

O=C(Nc1cc(Cl)ccc1Cl)C(=O)C(c1cnc2ccccc2n1)[N+](=O)[O-] (configuration not stated)
> 100 µM: all assays above
